Laboratory results: patent US10227344B2, “CK2 inhibitors, compositions and methods thereof” (Polaris Pharmaceuticals, Inc., priority 2016, dated 2019)

Experiments:
Type in all cases: cell-based
[1] = test system: EOL-1; assay: Cancer cell panel, cell viability (resazurin): Leukemia, EOL-1; settings: EOL-1 (Leukemia), 72 hours; labelled drug combined with Example 3
[2] = test system: H1299; assay: Cancer cell panel, cell viability (resazurin): NSCLC, H1299; settings: 72 hours, labelled drug combined with Example 3
[3] = test system: WM-115; assay: Cancer cell panel, cell viability (resazurin): Melanoma, WM-115; settings: WM-115 (Melanoma), 72 hours; labelled drug combined with Example 3
[4] = test system: H23; assay: Cancer cell panel, cell viability (resazurin): NSCLC, H23; settings: 72 hours, labelled drug combined with Example 3
[5] = test system: BT-474; assay: Cancer cell panel, cell viability (resazurin): Breast, BT-474; settings: BT-474 (Breast), 72 hours; labelled drug combined with Example 3
[6] = test system: A2780; assay: Cancer cell panel, cell viability (resazurin): Ovarian, A2780; settings: 72 hours, labelled drug combined with Example 3
[7] = test system: BxPC3; assay: Cancer cell panel, cell viability (resazurin): Pancreatic, BxPC3; settings: 72 hours, labelled drug combined with Example 3
[8] = test system: MOLT4; assay: Cancer cell panel, cell viability (resazurin): Leukemia, MOLT4; settings: 72 hours, labelled drug combined with Example 3
[9] = test system: SkBr-3; assay: Cancer cell panel, cell viability (resazurin): Breast, SkBr-3; settings: SkBr-3 (Breast), 72 hours; labelled drug combined with Example 3
[10] = test system: NAMALWA; assay: Cancer cell panel, cell viability (resazurin): Burkitt's Lymphoma, NAMALWA; settings: 72 hours, labelled drug combined with Example 3
[11] = test system: OVCAR-3; assay: Cancer cell panel, cell viability (resazurin): Ovarian, OVCAR-3; settings: OVCAR-3 (Ovarian), 72 hours; labelled drug combined with Example 3
[12] = test system: ZR-75-1; assay: Cancer cell panel, cell viability (resazurin): Breast, ZR-75-1; settings: ZR-75-1 (Breast), 72 hours; labelled drug combined with Example 3
[13] = test system: U87MG; assay: Cancer cell panel, cell viability (resazurin): Glioblastoma, U87MG; settings: 72 hours, labelled drug combined with Example 3
[14] = test system: SK-MEL-3; assay: Cancer cell panel, cell viability (resazurin): Melanoma, SK-MEL-3; settings: SK-MEL-3 (Melanoma), 72 hours; labelled drug combined with Example 3
[15] = test system: SK-MEL-24; assay: Cancer cell panel, cell viability (resazurin): Melanoma, SK-MEL-24; settings: SK-MEL-24 (Melanoma), 72 hours; labelled drug combined with Example 3
[16] = test system: H460; assay: Cancer cell panel, cell viability (resazurin): NSCLC, H460; settings: 72 hours, labelled drug combined with Example 3
[17] = test system: HT29; assay: Cancer cell panel, cell viability (resazurin): Colon, HT29; settings: 72 hours, labelled drug combined with Example 3
[18] = test system: Colo205; assay: Cancer cell panel, cell viability (resazurin): Colon, Colo205; settings: 72 hours, labelled drug combined with Example 3
[19] = test system: SKOV-3; assay: Cancer cell panel, cell viability (resazurin): Ovarian, SKOV-3; settings: SKOV-3 (Ovarian), 72 hours; labelled drug combined with Example 3
[20] = test system: K562; assay: Cancer cell panel, cell viability (resazurin): Leukemia, K562; settings: 72 hours, labelled drug combined with Example 3
[21] = test system: HL60; assay: Cancer cell panel, cell viability (resazurin): Leukemia, HL60; settings: 72 hours, labelled drug combined with Example 3
[22] = test system: H2122; assay: Cancer cell panel, cell viability (resazurin): NSCLC, H2122; settings: 72 hours, labelled drug combined with Example 3
[23] = test system: U266; assay: Cancer cell panel, cell viability (resazurin): multiple myeloma, U266; settings: 72 hours, labelled drug combined with Example 3
[24] = test system: H1975; assay: Cancer cell panel, cell viability (resazurin): NSCLC, H1975; settings: 72 hours, labelled drug combined with Example 3
[25] = test system: Panc-1; assay: Cancer cell panel, cell viability (resazurin): Pancreatic, Panc-1; settings: Panc-1 (Pancreatic), 72 hours; labelled drug combined with Example 3
[26] = test system: MDA-MB-453; assay: Cancer cell panel, cell viability (resazurin): Breast, MDA-MB-453; settings: MDA-MB-453 (Breast), 72 hours; labelled drug combined with Example 3
[27] = test system: RPMI8226; assay: Cancer cell panel, cell viability (resazurin): multiple myeloma, RPMI8226; settings: 72 hours, labelled drug combined with Example 3
[28] = test system: 786-O; assay: Cancer cell panel, cell viability (resazurin): Renal, 786-O; settings: 786-O (Renal), 72 hours; labelled drug combined with Example 3
[29] = test system: T47D; assay: Cancer cell panel, cell viability (resazurin): Breast, T47D; settings: 72 hours, labelled drug combined with Example 3
[30] = test system: PC3; assay: Cancer cell panel, cell viability (resazurin): Prostate, PC3; settings: 72 hours, labelled drug combined with Example 3
[31] = test system: A375; assay: Cancer cell panel, cell viability (resazurin): Melanoma, A375; settings: 72 hours, labelled drug combined with Example 3
[32] = test system: MDA-MB-231; assay: Cancer cell panel, cell viability (resazurin): Breast, MDA-MB-231; settings: MDA-MB-231 (Breast), 72 hours; labelled drug combined with Example 3
[33] = test system: DLD-1; assay: Cancer cell panel, cell viability (resazurin): Colon, DLD-1; settings: DLD-1 (Colon), 72 hours; labelled drug combined with Example 3
[34] = test system: Caki-1; assay: Cancer cell panel, cell viability (resazurin): Renal, Caki-1; settings: Caki-1 (Renal), 72 hours; labelled drug combined with Example 3
[35] = test system: BT-20; assay: Cancer cell panel, cell viability (resazurin): Breast, BT-20; settings: BT-20 (Breast), 72 hours; labelled drug combined with Example 3
[36] = test system: ACHN; assay: Cancer cell panel, cell viability (resazurin): Renal, ACHN; settings: 72 hours, labelled drug combined with Example 3
[37] = test system: LoVo; assay: Cancer cell panel, cell viability (resazurin): Colon, LoVo; settings: 72 hours, labelled drug combined with Example 3
[38] = test system: Daudi; assay: Cancer cell panel, cell viability (resazurin): Burkitt's Lymphoma, Daudi; settings: 72 hours, labelled drug combined with Example 3
[39] = test system: Caov-3; assay: Cancer cell panel, cell viability (resazurin): Ovarian, Caov-3; settings: Caov-3 (Ovarian), 72 hours; labelled drug combined with Example 3

With `C#Cc1cccc(Nc2ncnc3cc(OCCOC)c(OCCOC)cc23)c1` [Erlotinib, erlotinib] the “synergy, additivity or antagonism of the combination of Example 3 with the anti-cancer drug” value (shortened to “synergy, additivity or antagonism”) [1] was “+ (Additive relative to each agent alone (CI = 0.9-1 by Bliss Independence Model and <0.9 by Highest Single Agent Model))”, the “synergy, additivity or antagonism” value [2] was “+ (Additive relative to each agent alone (CI = 0.9-1 by Bliss Independence Model and <0.9 by Highest Single Agent Model))” and the “synergy, additivity or antagonism” value [3] was “+ (Additive relative to each agent alone (CI = 0.9-1 by Bliss Independence Model and <0.9 by Highest Single Agent Model))”. For the same compound, the “synergy, additivity or antagonism” value [4] was “+ + + (Synergy relative to each agent alone (CI = 0.4-0.74 by Bliss Independence Model))”, the “synergy, additivity or antagonism” value [5] was “+ + (Slight synergy relative to each agent alone (CI = 0.75-0.9 by Bliss Independence Model))” and the “synergy, additivity or antagonism” value [6] was “+ + (Slight synergy relative to each agent alone (CI = 0.75-0.9 by Bliss Independence Model))”. For the same compound, the “synergy, additivity or antagonism” value [7] was “+ + + + (Strong synergy relative to each agent alone (CI < 0.4 by Bliss Independence Model))”, the “synergy, additivity or antagonism” value [8] was “+ + (Slight synergy relative to each agent alone (CI = 0.75-0.9 by Bliss Independence Model))” and the “synergy, additivity or antagonism” value [9] was “+ + (Slight synergy relative to each agent alone (CI = 0.75-0.9 by Bliss Independence Model))”. The “synergy, additivity or antagonism” value [10] was “+ (Additive relative to each agent alone (CI = 0.9-1 by Bliss Independence Model and <0.9 by Highest Single Agent Model))”, the “synergy, additivity or antagonism” value [11] was “+ (Additive relative to each agent alone (CI = 0.9-1 by Bliss Independence Model and <0.9 by Highest Single Agent Model))” and the “synergy, additivity or antagonism” value [12] was “+ (Additive relative to each agent alone (CI = 0.9-1 by Bliss Independence Model and <0.9 by Highest Single Agent Model))”. For the same compound, the “synergy, additivity or antagonism” value [13] was “+ (Additive relative to each agent alone (CI = 0.9-1 by Bliss Independence Model and <0.9 by Highest Single Agent Model))”, the “synergy, additivity or antagonism” value [14] was “+ (Additive relative to each agent alone (CI = 0.9-1 by Bliss Independence Model and <0.9 by Highest Single Agent Model))” and the “synergy, additivity or antagonism” value [15] was “+ (Additive relative to each agent alone (CI = 0.9-1 by Bliss Independence Model and <0.9 by Highest Single Agent Model))”. The “synergy, additivity or antagonism” value [16] was “+ + + + (Strong synergy relative to each agent alone (CI < 0.4 by Bliss Independence Model))”, the “synergy, additivity or antagonism” value [17] was “+ + (Slight synergy relative to each agent alone (CI = 0.75-0.9 by Bliss Independence Model))” and the “synergy, additivity or antagonism” value [18] was “+ + + (Synergy relative to each agent alone (CI = 0.4-0.74 by Bliss Independence Model))”. For the same compound, the “synergy, additivity or antagonism” value [19] was “+ + + (Synergy relative to each agent alone (CI = 0.4-0.74 by Bliss Independence Model))”, the “synergy, additivity or antagonism” value [20] was “+ + + (Synergy relative to each agent alone (CI = 0.4-0.74 by Bliss Independence Model))” and the “synergy, additivity or antagonism” value [21] was “+ + (Slight synergy relative to each agent alone (CI = 0.75-0.9 by Bliss Independence Model))”. The “synergy, additivity or antagonism” value [22] was “+ + + + (Strong synergy relative to each agent alone (CI < 0.4 by Bliss Independence Model))”, the “synergy, additivity or antagonism” value [23] was “+ (Additive relative to each agent alone (CI = 0.9-1 by Bliss Independence Model and <0.9 by Highest Single Agent Model))” and the “synergy, additivity or antagonism” value [24] was “+ + (Slight synergy relative to each agent alone (CI = 0.75-0.9 by Bliss Independence Model))”. The “synergy, additivity or antagonism” value [25] was “+ (Additive relative to each agent alone (CI = 0.9-1 by Bliss Independence Model and <0.9 by Highest Single Agent Model))”, the “synergy, additivity or antagonism” value [26] was “+ + (Slight synergy relative to each agent alone (CI = 0.75-0.9 by Bliss Independence Model))” and the “synergy, additivity or antagonism” value [27] was “+ + + (Synergy relative to each agent alone (CI = 0.4-0.74 by Bliss Independence Model))”. For the same compound, the “synergy, additivity or antagonism” value [28] was “+ + (Slight synergy relative to each agent alone (CI = 0.75-0.9 by Bliss Independence Model))”, the “synergy, additivity or antagonism” value [29] was “+ (Additive relative to each agent alone (CI = 0.9-1 by Bliss Independence Model and <0.9 by Highest Single Agent Model))” and the “synergy, additivity or antagonism” value [30] was “− (Slightly antagonistic relative to each agent alone (CI = 1.1-1.2 by Highest Single Agent Model))”. For the same compound, the “synergy, additivity or antagonism” value [31] was “+ + (Slight synergy relative to each agent alone (CI = 0.75-0.9 by Bliss Independence Model))”, the “synergy, additivity or antagonism” value [32] was “+ + (Slight synergy relative to each agent alone (CI = 0.75-0.9 by Bliss Independence Model))” and the “synergy, additivity or antagonism” value [33] was “+ + + (Synergy relative to each agent alone (CI = 0.4-0.74 by Bliss Independence Model))”. For the same compound, the “synergy, additivity or antagonism” value [34] was “+ (Additive relative to each agent alone (CI = 0.9-1 by Bliss Independence Model and <0.9 by Highest Single Agent Model))”, the “synergy, additivity or antagonism” value [35] was “+ + + (Synergy relative to each agent alone (CI = 0.4-0.74 by Bliss Independence Model))” and the “synergy, additivity or antagonism” value [36] was “+ (Additive relative to each agent alone (CI = 0.9-1 by Bliss Independence Model and <0.9 by Highest Single Agent Model))”. For the same compound, the “synergy, additivity or antagonism” value [37] was “+ (Additive relative to each agent alone (CI = 0.9-1 by Bliss Independence Model and <0.9 by Highest Single Agent Model))”, the “synergy, additivity or antagonism” value [38] was “+ + (Slight synergy relative to each agent alone (CI = 0.75-0.9 by Bliss Independence Model))” and the “synergy, additivity or antagonism” value [39] was “+ + (Slight synergy relative to each agent alone (CI = 0.75-0.9 by Bliss Independence Model))”.
